From patent US11167007B2, “FOXM1 modulators and uses thereof” (City of Hope, priority 2016, dated 2021)

What was measured:
AR = biological target: T1, AR (Homo sapiens, UniProt P10275); assay: Androgen-responsive luciferase reporter assay in ReNcell CX neuronal cells; type: cell-based; design: endogenous in cells; host or cells: ReNcell CX; conditions: FIG. 2B
T1 sequence (P10275 1-920): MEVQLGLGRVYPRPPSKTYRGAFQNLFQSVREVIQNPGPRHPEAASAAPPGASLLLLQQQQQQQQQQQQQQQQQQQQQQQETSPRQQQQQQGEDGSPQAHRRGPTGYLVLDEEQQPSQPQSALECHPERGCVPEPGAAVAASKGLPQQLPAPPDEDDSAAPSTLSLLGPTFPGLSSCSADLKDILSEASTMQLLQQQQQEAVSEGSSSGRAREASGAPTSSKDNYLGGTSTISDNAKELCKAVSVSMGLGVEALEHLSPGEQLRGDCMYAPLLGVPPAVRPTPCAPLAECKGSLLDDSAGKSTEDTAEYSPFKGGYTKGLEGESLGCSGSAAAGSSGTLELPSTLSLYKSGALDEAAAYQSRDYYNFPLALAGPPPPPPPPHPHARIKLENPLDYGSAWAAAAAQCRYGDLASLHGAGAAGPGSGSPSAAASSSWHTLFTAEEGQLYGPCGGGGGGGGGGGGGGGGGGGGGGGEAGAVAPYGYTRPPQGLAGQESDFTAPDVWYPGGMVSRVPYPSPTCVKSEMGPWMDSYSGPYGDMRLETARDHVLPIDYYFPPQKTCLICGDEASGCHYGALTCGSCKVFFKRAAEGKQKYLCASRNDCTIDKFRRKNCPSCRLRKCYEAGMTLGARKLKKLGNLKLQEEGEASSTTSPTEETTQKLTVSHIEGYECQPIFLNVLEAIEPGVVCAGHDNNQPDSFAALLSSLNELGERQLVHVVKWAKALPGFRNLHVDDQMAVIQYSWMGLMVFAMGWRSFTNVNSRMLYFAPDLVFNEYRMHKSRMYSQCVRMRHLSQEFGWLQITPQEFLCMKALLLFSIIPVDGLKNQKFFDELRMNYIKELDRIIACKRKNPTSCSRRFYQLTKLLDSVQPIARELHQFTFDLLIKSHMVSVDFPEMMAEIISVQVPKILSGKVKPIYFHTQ
From the text: Luciferase Reporter Assay. Cells were transfected using Lipofectamine Plus (Invitrogen) with a normalization plasmid (pRL-SV40, Promega) and an androgen responsive plasmid (MMTV-luciferase or PSA-luciferase) as described in Jones et al, ACS Chem Biol, 3(7):412-8 (2008), and, where indicated, with an shRNA plasmid targeting FOXM1 (adapted for mouse FOXM1 sequence targeting) a scrambled control shRNA plasmid, or ARQ24 or ARQ65 plasmids. Christensen et al, PLoS One, 8(1):e54556 (2013). The following day, cells and drugs were distributed to 96-well plates. 24 hours later, luciferase activity was assessed by a dual luciferase assay kit (Promega) on the Tecan plate reader. Samples were run in quadruplicates and a Student's t test was performed to determine significance, where p<0.05 was considered significant.
The ability of thiostrepton to inhibit AR activity in additional neuronal cells, including ReNcell CX cells PC12 cells, and in rat L6 skeletal muscle cells was examined (FIG. 2B). Donato et al, BMC Neurosci, 8:36 (2007); Yaffe, Proc Natl Acad Sci USA, 61(2):477-83 (1968).

β-catenin = assay: Western blot of β-catenin in nuclear and cytoplasmic fractions of GT1-7 cells; type: cell-based, murine; conditions: nuclear fraction, FIG. 3D
From the text: Western Blot. Cell lysates was separated on a 6% SDS page gel and transferred to a nitrocellulose membrane. The membrane was blocked for one hour in 5% skim milk dissolved in TBS-T and probed with the following antibodies ([…]): FoxM1 (rabbit, GeneTex), AR: 441 (mouse, Santa Cruz Biotechnology), β-catenin (rabbit 9562, Cell Signaling Technology), p84 (mouse, GeneTex) and actin (mouse, Santa Cruz Biotechnology). Horse radish peroxidase linked secondary antibodies were used along with ECL reagents for visualization. Western blots were quantified using Quantity One analysis software (BioRad).
It has been previously reported that thiostrepton causes decreased levels of FOXM1. Hegde et al, Nat Chem, 3(9):725-31 (2011); Gartel, Front Oncol, 3:150 (2013). […] The nuclear association between FOXM1 and β-catenin increases the transcriptional activity of both factors. Zhang et al, Cancer Cell, 20(4):427-42 (2011). β-catenin is a key AR coactivator in a variety of cells. Yang, J Biol Chem, 277(13):11336-44 (2002); Truica et al, Cancer Res, 60(17):4709-13 (2000). The inventors believed that thiostrepton could inhibit AR activity by limiting access to nuclear β-catenin via FOXM1 depletion. […] As expected, control actin protein was observed primarily in cytoplasmic fraction.

For C=C(NC(=O)C(=C)NC(=O)c1csc(C2=N[C@@H]3c4csc(n4)[C@H]4NC(=O)c5csc(n5)[C@H]([C@](C)(O)[C@@H](C)O)NC(=O)[C@H]5CSC(=N5)/C(=C/C)NC(=O)[C@H]([C@@H](C)O)NC(=O)c5csc(n5)[C@]3(CC2)NC(=O)[C@H](C)NC(=O)C(=C)NC(=O)[C@H](C)NC(=O)[C@H]([C@@H](C)CC)N[C@@H]2C=Cc3c([C@H](C)O)cc(nc3[C@H]2O)C(=O)O[C@@H]4C)n1)C(N)=O [thiostrepton], the “inhibition of AR activity (luciferase)” value (AR) was “inhibited AR activity” and the “levels of nuclear β-catenin” value (β-catenin) was “lower levels”.
